How the values were obtained:
[1] = in vitro; conditions: human, Caco-2, pH 7.4
[2] = test system: IFNα-induced pSTAT5 in human whole blood (CD3 positive population); test: IFNα-Induced STAT Phosphorylation in Human Whole Blood; format: cell-based; conditions: 1 h incubation with compound, 1000 U/mL IFNα A/D for 15 min, pSTAT5 in CD3 positive cells, read-out: Human Whole blood IFNa pSTAT5 IC50
Protocol: IFNα-Induced STAT Phosphorylation in Human Whole Blood
After an hour long incubation with compound, human whole blood (drawn with ACD-A as anticoagulant) was stimulated with 1000 U/mL recombinant human IFNα A/D (R&D Systems 11200-2) for 15 min. The stimulation was stopped by adding Fix/Lyse buffer (BD 558049). Cells were stained with a CD3 FITC antibody (BD 555916), washed, and permeabilized on ice using Perm III buffer (BD 558050). Cells were then stained with an Alexa-Fluor 647 pSTAT5 (pY694) antibody (BD 612599) for 60 min prior to analysis on the iQue Plus. The amount of pSTAT5 expression was quantitated by median fluorescence intensity after gating on the CD3 positive population.

Row | Structure (SMILES) | Papp A→B at 2 h, 3 μM [1] [×10⁻⁶ cm/s] | efflux ratio at 2 h, 3 μM [1] | IC50 [2] [nM]
1 | [2H]C([2H])([2H])NC(=O)c1nnc(NC(=O)C2CC2)cc1Nc1ncnc(-c2cnn(C)n2)c1OC [Example 1, 6-(cyclopropanecarboxamido)-4-((5-methoxy-6-(2-methyl-2H-1,2,3-triazol-4-yl)pyrimidin-4-yl)amino)-N-(methyl-d3)pyridazine-3-carboxamide] | 26.1 | 1.8 | 320
2 | [2H]C([2H])([2H])NC(=O)c1nnc(NC(=O)C2CC2)cc1Nc1ccnc(-c2cnn(C)n2)c1OC [Example 2, 6-(cyclopropanecarboxamido)-4-((3-methoxy-2-(2-methyl-2H-1,2,3-triazol-4-yl)pyridin-4-yl)amino)-N-(methyl-d3)pyridazine-3-carboxamide] | 12.2 | 4.9 | 50
3 | [2H]C([2H])([2H])NC(=O)c1nnc(NC(=O)C2CC2)cc1Nc1ccnc(-c2cnn(C3CC3)n2)c1OC [Example 3, 6-(cyclopropanecarboxamido)-4-((2-(2-cyclopropyl-2H-1,2,3-triazol-4-yl)-3-methoxypyridin-4-yl)amino)-N-(methyl-d3)pyridazine-3-carboxamide] | 9.8 | 3.3 | 190
4 | [2H]C([2H])([2H])NC(=O)c1nnc(NC(=O)C2CC2)cc1Nc1ccnc(-c2cnn(C3CC3)c2)c1OC [Example 4, 6-(cyclopropanecarboxamido)-4-((2-(1-cyclopropyl-1H-pyrazol-4-yl)-3-methoxypyridin-4-yl)amino)-N-(methyl-d3)pyridazine-3-carboxamide] | 13.8 | 2.8 | 350
5 | [2H]C([2H])([2H])NC(=O)c1nnc(NC(=O)C2CC2)cc1Nc1cncc(-c2cnn(C3CC3)n2)c1OC [Example 5, 6-(cyclopropanecarboxamido)-4-((5-(2-cyclopropyl-2H-1,2,3-triazol-4-yl)-4-methoxypyridin-3-yl)amino)-N-(methyl-d3)pyridazine-3-carboxamide] | 34.2 | 1.1 | 1090

Source: US20240270723A1, “SUBSTITUTED HETEROCYCLIC COMPOUNDS” (BRISTOL-MYERS SQUIBB COMPANY, priority 2021, published 2024)
